The record followed here is ChEMBL document CHEMBL1133208, “Synthesis and biological properties of new 1beta-methylcarbapenems having tetrazolothioether moiety” (Bioorg Med Chem Lett, 2000).

Molecules are shown by their SMILES. Values after ≈ are worked out from the molar mass of the structure shown.

One data set has as its system Enterobacter cloacae. Kind of data set: In vitro antibacterial activity against Enterobacter cloacae 1321E by agar dilution method using Mueller-Hinton. The class given is functional. Background: In agar dilution the substance is mixed into plates at graded concentrations.
The test system of data set [1] is Escherichia coli. Kind of data set: In vitro antibacterial activity against Escherichia coli 078 by agar dilution method using Mueller-Hinton. The class given is functional.
The subject of data set [2] is Escherichia coli. Nature of the data set: In vitro antibacterial activity against Escherichia coli 1507E by agar dilution method using Mueller-Hinton. The data set is classed as functional.
A further data set has as its system Klebsiella aerogenes. Kind of data set: In vitro antibacterial activity against Klebsiella aerogenes 1522E by agar dilution method using Mueller-Hinton. The data set is classed as functional.
The test system of data set [3] is Pseudomonas aeruginosa. Nature of the data set: In vitro antibacterial activity against Pseudomonas aeruginosa 1771M by agar dilution method using Mueller-Hinton. The class given is functional.
Data set [4] relates to Pseudomonas aeruginosa. Nature of the data set: In vitro antibacterial activity against Pseudomonas aeruginosa 9027 by agar dilution method using Mueller-Hinton. The class given is functional.
The subject of data set [5] is Pseudomonas aeruginosa. Nature of the data set: In vitro antibacterial activity against Pseudomonas aeruginosa 1592E by agar dilution method using Mueller-Hinton. The class given is functional.
A further data set relates to Salmonella typhimurium. Kind of data set: In vitro antibacterial activity against Salmonella Typhimurium by agar dilution method using Mueller-Hinton. The data set is classed as functional, Salmonella enterica subsp. enterica serovar Typhimurium. Conditions: Salmonella enterica.
In data set [6] the test system is Staphylococcus aureus. Kind of data set: In vitro antibacterial activity against Staphylococcus aureus SG 285 by agar dilution method using Mueller-Hinton. The class given is functional.
For data set [7], the system named is Staphylococcus aureus. Nature of the data set: In vitro antibacterial activity against Staphylococcus aureus SG 503 by agar dilution method using Mueller-Hinton. The data set is classed as functional.
Data set [8] deals with Staphylococcus aureus. Kind of data set: In vitro antibacterial activity against Staphylococcus aureus SG 511 by agar dilution method using Mueller-Hinton. The data set is classed as functional.
Another data set has as its system Streptococcus pyogenes. Nature of the data set: In vitro antibacterial activity against Streptococcus pyogenes 308A by agar dilution method using Mueller-Hinton. The data set is classed as functional.
The nature of data set [9]: The area under concentration-time curve(AUC) was determined at 20 mg/kg of compound dose, administered intravenously in rat. The class given is ADME, organism-based. More on the design: dose 20 mg/kg, route intravenous. Conditions: in vivo, iv.
A short description of data set [10]: Pharmacokinetic studies were carried out to determine the clearance after administration at 20 mg/kg intravenously in rat. The class given is ADME, organism-based. On the set-up: dose 20 mg/kg, route intravenous. The settings on record: in vivo, iv.

What is called MIC is the lowest concentration found to suppress growth. A high value points to a less susceptible organism. As for `C[C@@H](O)[C@H]1C(=O)N2C(C(=O)[O-])=C(S[C@@H]3CN[C@H](CSc4nnnn4CC[N+](C)(C)C)C3)[C@H](C)[C@H]12`, the MIC was 0.098 µg/mL (≈ 0.192 µM) with Enterobacter cloacae; 0.049 µg/mL (≈ 0.0958 µM) against Escherichia coli [1]; 0.098 µg/mL (≈ 0.192 µM) in the data set with Escherichia coli [2]; 0.195 µg/mL (≈ 0.381 µM) in the data set with Klebsiella aerogenes; 0.195 µg/mL (≈ 0.381 µM) against Pseudomonas aeruginosa [3]; 0.781 µg/mL (≈ 1.53 µM) with Pseudomonas aeruginosa [4]. Further, the minimal inhibitory concentration (MIC) against Pseudomonas aeruginosa [5] is 0.781 µg/mL (≈ 1.53 µM); against Salmonella typhimurium, 0.195 µg/mL (≈ 0.381 µM); in the data set on Staphylococcus aureus [6] it was 0.195 µg/mL (≈ 0.381 µM); against Staphylococcus aureus [7], 0.049 µg/mL (≈ 0.0958 µM); in the data set with Staphylococcus aureus [8] it was 0.098 µg/mL (≈ 0.192 µM); with Streptococcus pyogenes, 25 ng/mL (≈ 0.0489 µM).

For the compound `C[C@@H](O)[C@H]1C(=O)N2C(C(=O)O)=C(S[C@@H]3CN[C@H](CSc4nnnn4CCN(C)C)C3)[C@H](C)[C@H]12`, the MIC was 0.049 µg/mL (≈ 0.0985 µM) in the data set on Enterobacter cloacae; 0.025 µg/mL (≈ 0.0502 µM) against Escherichia coli [1]; 0.049 µg/mL (≈ 0.0985 µM) with Escherichia coli [2]; 0.098 µg/mL (≈ 0.197 µM) in the data set on Klebsiella aerogenes; 0.195 µg/mL (≈ 0.392 µM) against Pseudomonas aeruginosa [3]; 3.12 µg/mL (≈ 6.28 µM) in the data set on Pseudomonas aeruginosa [4]. For the same compound, the MIC in the data set on Pseudomonas aeruginosa [5] came out at 3.12 µg/mL (≈ 6.28 µM); against Salmonella typhimurium, 0.098 µg/mL (≈ 0.197 µM); in the data set on Staphylococcus aureus [6] it was 0.098 µg/mL (≈ 0.197 µM); with Staphylococcus aureus [7], 0.025 µg/mL (≈ 0.0502 µM); against Staphylococcus aureus [8], 0.049 µg/mL (≈ 0.0985 µM); in the data set on Streptococcus pyogenes, 13 ng/mL (≈ 0.0261 µM).

The AUC is the area under the concentration-time curve, a measure of exposure. Usually clearance stands for the volume of plasma or blood freed of the substance per unit of time. High values mean efficient removal, low ones inefficient removal. As to `C[C@@H](O)[C@H]1C(=O)N2C(C(=O)O)=C(S[C@@H]3CN[C@H](CSc4nnnn4C)C3)[C@H](C)[C@H]12`, in [9], the area under the curve (AUC) was 15900 ng·h/mL. In data set [10], the clearance was found to be 21.8 mL/min/kg. Also, the MIC in the data set on Enterobacter cloacae came to 0.025 µg/mL (≈ 0.0567 µM); against Escherichia coli [1] it was 0.025 µg/mL (≈ 0.0567 µM); against Escherichia coli [2], 0.025 µg/mL (≈ 0.0567 µM); with Klebsiella aerogenes it was 0.025 µg/mL (≈ 0.0567 µM); against Pseudomonas aeruginosa [3] it was 0.195 µg/mL (≈ 0.443 µM); in the data set with Pseudomonas aeruginosa [4] it was 0.781 µg/mL (≈ 1.77 µM). Also, the minimum inhibitory concentration (MIC) against Pseudomonas aeruginosa [5] worked out at 0.781 µg/mL (≈ 1.77 µM); against Salmonella typhimurium, 0.025 µg/mL (≈ 0.0567 µM); with Staphylococcus aureus [6], 0.049 µg/mL (≈ 0.111 µM); in the data set with Staphylococcus aureus [7], 0.025 µg/mL (≈ 0.0567 µM); against Staphylococcus aureus [8] it was 0.025 µg/mL (≈ 0.0567 µM); with Streptococcus pyogenes it was 4 ng/mL (≈ 0.00908 µM).

In the case of `C[C@@H](O)[C@H]1C(=O)N2C(C(=O)O)=C(S[C@@H]3CN[C@H](CSc4nnnn4CCO)C3)[C@H](C)[C@H]12`, the minimal inhibitory concentration (MIC) turned out to be 0.049 µg/mL (≈ 0.104 µM) against Enterobacter cloacae; 0.025 µg/mL (≈ 0.0531 µM) with Escherichia coli [1]; 0.025 µg/mL (≈ 0.0531 µM) with Escherichia coli [2]; 0.049 µg/mL (≈ 0.104 µM) in the data set on Klebsiella aerogenes; 0.195 µg/mL (≈ 0.414 µM) against Pseudomonas aeruginosa [3]; 1.56 µg/mL (≈ 3.32 µM) in the data set with Pseudomonas aeruginosa [4]. Besides, the MIC is 1.56 µg/mL (≈ 3.32 µM) in the data set on Pseudomonas aeruginosa [5]; 0.049 µg/mL (≈ 0.104 µM) against Salmonella typhimurium; 0.098 µg/mL (≈ 0.208 µM) in the data set with Staphylococcus aureus [6]; 0.049 µg/mL (≈ 0.104 µM) against Staphylococcus aureus [7]; 0.098 µg/mL (≈ 0.208 µM) in the data set on Staphylococcus aureus [8]; 7 ng/mL (≈ 0.0149 µM) in the data set on Streptococcus pyogenes.

As for `CNC(=O)Cn1nnnc1SC[C@@H]1C[C@H](SC2=C(C(=O)O)N3C(=O)[C@H]([C@@H](C)O)[C@H]3[C@H]2C)CN1`, the MIC in the data set with Enterobacter cloacae came to 0.049 µg/mL (≈ 0.0985 µM); with Escherichia coli [1], 0.025 µg/mL (≈ 0.0502 µM); against Escherichia coli [2], 0.049 µg/mL (≈ 0.0985 µM); in the data set on Klebsiella aerogenes it was 0.098 µg/mL (≈ 0.197 µM); in the data set on Pseudomonas aeruginosa [3], 0.391 µg/mL (≈ 0.786 µM); with Pseudomonas aeruginosa [4] it was 1.56 µg/mL (≈ 3.14 µM). Moreover, the minimal inhibitory concentration (MIC) in the data set on Pseudomonas aeruginosa [5] was 1.56 µg/mL (≈ 3.14 µM); against Salmonella typhimurium, 0.098 µg/mL (≈ 0.197 µM); with Staphylococcus aureus [6] it was 0.195 µg/mL (≈ 0.392 µM); against Staphylococcus aureus [7], 0.098 µg/mL (≈ 0.197 µM); against Staphylococcus aureus [8], 0.195 µg/mL (≈ 0.392 µM); against Streptococcus pyogenes, 13 ng/mL (≈ 0.0261 µM).

As to `C[C@@H](O)[C@H]1C(=O)N2C(C(=O)O)=C(S[C@@H]3CN[C@H](CSc4nnnn4CCS(=O)(=O)N(C)C)C3)[C@H](C)[C@H]12`, the minimal inhibitory concentration (MIC) is 0.025 µg/mL (≈ 0.0445 µM) against Enterobacter cloacae; 0.025 µg/mL (≈ 0.0445 µM) against Escherichia coli [1]; 0.025 µg/mL (≈ 0.0445 µM) in the data set with Escherichia coli [2]; 0.049 µg/mL (≈ 0.0872 µM) with Klebsiella aerogenes; 0.391 µg/mL (≈ 0.696 µM) in the data set on Pseudomonas aeruginosa [3]; 6.25 µg/mL (≈ 11.1 µM) in the data set on Pseudomonas aeruginosa [4]. Also, the MIC came out at 12.5 µg/mL (≈ 22.3 µM) with Pseudomonas aeruginosa [5]; 0.049 µg/mL (≈ 0.0872 µM) in the data set with Salmonella typhimurium; 0.098 µg/mL (≈ 0.174 µM) against Staphylococcus aureus [6]; 0.025 µg/mL (≈ 0.0445 µM) with Staphylococcus aureus [7]; 0.098 µg/mL (≈ 0.174 µM) with Staphylococcus aureus [8]; 7 ng/mL (≈ 0.0125 µM) against Streptococcus pyogenes.

In the case of `C[C@@H](O)[C@H]1C(=O)N2C(C(=O)O)=C(S[C@@H]3CN[C@H](CSc4nnnn4-c4ccccc4)C3)[C@H](C)[C@H]12`, the MIC against Enterobacter cloacae was 0.098 µg/mL (≈ 0.195 µM); against Escherichia coli [1], 0.195 µg/mL (≈ 0.388 µM); against Escherichia coli [2], 0.391 µg/mL (≈ 0.778 µM); in the data set with Klebsiella aerogenes, 0.391 µg/mL (≈ 0.778 µM); against Pseudomonas aeruginosa [3] it was 3.12 µg/mL (≈ 6.22 µM); in the data set with Pseudomonas aeruginosa [4], 50 µg/mL (≈ 99.5 µM). In addition, the minimal inhibitory concentration (MIC) came out at 50 µg/mL (≈ 99.5 µM) with Pseudomonas aeruginosa [5]; 0.098 µg/mL (≈ 0.195 µM) in the data set with Salmonella typhimurium; 0.049 µg/mL (≈ 0.0975 µM) against Staphylococcus aureus [6]; 0.025 µg/mL (≈ 0.0497 µM) in the data set on Staphylococcus aureus [7]; 0.049 µg/mL (≈ 0.0975 µM) with Staphylococcus aureus [8]; 7 ng/mL (≈ 0.0139 µM) against Streptococcus pyogenes.
